Test results published in the SangsterLogP compilation.

assay: method code SF-AS, from DOI: 10.1021/jm00326a002, PMID: 14332653

Compound	logP
CN(C)CCCc1ccccc1	2.73
N#CCCCc1ccccc1	2.21
BrCCc1ccccc1	3.09
CCCCSC#N	2.03
C=CCCC(C)=O	1.02
C#Cc1ccccc1	2.53
FCCCc1ccccc1	2.95
COC(=O)CCc1ccccc1	2.32
COC(=O)Cc1ccccc1	1.83
COC(=O)CCCc1ccccc1	2.77
NC(=O)CCc1ccccc1	0.91
NC(=O)CCCc1ccccc1	1.41
ClCCc1ccccc1	2.95
CC(=O)OCCc1ccccc1	2.3
CC(=O)CCCc1ccccc1	2.42
CC(=O)Cc1ccccc1	1.44
c1ccc2ncccc2c1	2.03
BrCCCc1ccccc1	3.72
N#CCCc1ccccc1	1.72
COCCCc1ccccc1	2.7

assay: method code SF, from DOI: 10.1021/jm00326a002, PMID: 14332653

Compound	logP
COC(=O)CCC(C)=O	-0.13
COC(=O)CCCCC(C)=O	0.55

assay: method code SF-GLC, from DOI: 10.1021/jm00326a002, PMID: 14332653

Compound	logP
CC(=O)CCC1CC1	1.5
